In ChEMBL document CHEMBL5727946, “PD-1/PD-L1 inhibitors” (2020):

molecular target: Programmed cell death protein 1/Programmed cell death 1 ligand 1 (Homo sapiens, UniProt Q15116+Q9NZQ7); assay: PD-1/PD-L1 & CTLA/CD80 Biochemical Protein-Protein Interaction Assay: Compounds were tested in biochemical protein-protein interaction assays to determine if they can specifically block the interaction between the extracellular domains of PD-1/PD-L1 or CTLA/CD80. Binding of the protein pairs is measured using a bead based Amplified Luminescent Proximity Homogeneous Assay (ALPHA) platform. […] Final protein concentration in the assays were 0.3 nM (His tagged PD-L1), 2.5 nM (biotinylated Fc-PD-1), 1 nM (His tagged CTLA4) and 1 nM (biotinylated CD80).; assay type: protein-complex assay
Sequence (Q15116 whole entry, the tested form may be a part): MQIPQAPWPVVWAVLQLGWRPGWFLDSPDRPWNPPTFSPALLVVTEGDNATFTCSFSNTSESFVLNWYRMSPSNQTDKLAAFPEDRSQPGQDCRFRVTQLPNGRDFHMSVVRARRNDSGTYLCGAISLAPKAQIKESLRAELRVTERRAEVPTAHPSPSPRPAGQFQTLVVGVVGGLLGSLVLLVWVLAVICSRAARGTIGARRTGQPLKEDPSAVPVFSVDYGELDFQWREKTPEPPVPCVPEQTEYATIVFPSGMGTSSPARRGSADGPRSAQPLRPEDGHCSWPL
Sequence (Q9NZQ7 whole entry, the tested form may be a part): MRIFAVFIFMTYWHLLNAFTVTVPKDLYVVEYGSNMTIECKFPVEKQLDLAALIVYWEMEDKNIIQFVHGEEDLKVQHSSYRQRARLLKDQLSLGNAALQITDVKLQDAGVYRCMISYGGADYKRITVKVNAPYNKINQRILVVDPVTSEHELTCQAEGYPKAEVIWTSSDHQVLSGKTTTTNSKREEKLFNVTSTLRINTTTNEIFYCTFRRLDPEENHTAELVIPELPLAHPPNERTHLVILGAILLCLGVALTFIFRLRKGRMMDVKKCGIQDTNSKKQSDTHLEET

Row | SMILES | IC50
1 | COc1nc(O[C@H]2CCc3c(-c4cccc(-c5cnc([C@@H](C)NC[C@H]6CCC(=O)N6)c(OC)n5)c4Cl)cccc32)c(Cl)cc1CN1CC[C@@H](C(=O)O)C1 | ≤ 0.064 nM
2 | CCS(=O)(=O)NC(=O)[C@@H]1CCN(Cc2cc(Cl)c(O[C@H]3CCc4c(-c5cccc(-c6ccc(CNC[C@@H]7CCC(=O)N7)c(OC)n6)c5Cl)cccc43)nc2OC)C1 | 0.117 nM
3 | COc1nc(-c2cccc(-c3cccc4c3CC[C@@H]4Oc3nc(OC)c(CN4CC[C@@H](C(=O)NS(C)(=O)=O)C4)cc3Cl)c2Cl)ccc1CN1CC(C)(O)C1 | ≤ 0.064 nM
4 | COc1nc(-c2cccc(-c3cccc4c3CC[C@@H]4Oc3nc(OCc4cncc(Cl)c4)c(CNC4(C(=O)O)CC4)cc3C(F)(F)F)c2Cl)ccc1CNC[C@@H]1CCC(=O)N1 | 0.101 nM
5 | COc1nc(-c2cccc(-c3cccc4c3CC[C@@H]4Oc3nc(OC)c(CN4CC[C@@H](C(=O)NS(=O)(=O)C(F)F)C4)cc3Cl)c2Cl)ccc1CNC[C@@H]1CCC(=O)N1 | 0.152 nM
6 | COc1nc(-c2cccc(-c3cccc4c3CC[C@@H]4Oc3nc(OC)c(CN4CC(C(=O)NS(=O)(=O)C(F)F)C4)cc3Cl)c2Cl)ccc1CNC[C@@H]1CCC(=O)N1 | 0.199 nM
7 | COc1nc(-c2cccc(-c3cccc4c3CC[C@@H]4Oc3nc(OCc4cncc(C#N)c4)c(CN4CC[C@@H](C(=O)O)C4)cc3Cl)c2Cl)ccc1CNC[C@@H]1CCC(=O)N1 | ≤ 0.064 nM
8 | COc1nc(-c2cccc(-c3cccc4c3CC[C@@H]4Oc3nc(OC)c(CN4CCC[C@@H]4C(=O)O)cc3Cl)c2Cl)ccc1CNC[C@@H]1CCC(=O)N1 | ≤ 0.064 nM
9 | COc1nc(-c2cccc(-c3cccc4c3CC[C@@H]4Oc3nc(OC)c(CN4CC[C@@H](C(=O)NS(C)(=O)=O)C4)cc3Cl)c2Cl)ccc1CNC[C@@H]1CCC(=O)N1 | ≤ 0.064 nM
10 | COc1nc(-c2cccc(-c3cccc4c3CC[C@@H]4Oc3nc(OC)c(CN4CCC[C@H]4C(=O)O)cc3Cl)c2Cl)ccc1CNC[C@@H]1CCC(=O)N1 | ≤ 0.064 nM
11 | COc1nc(-c2cccc(-c3cccc4c3CC[C@@H]4Oc3nc(OC)c(CN4CC(C(=O)NS(C)(=O)=O)C4)cc3Cl)c2Cl)ccc1CN1CC(C)(O)C1 | 0.088 nM
12 | COc1nc(-c2cccc(-c3cccc4c3CC[C@@H]4Oc3nc(OCc4cncc(F)c4)c(CN4CC5(C(=O)O)CCC4CC5)cc3Cl)c2Cl)ccc1CNC[C@@H]1CCC(=O)N1 | ≤ 0.064 nM
13 | COc1nc(-c2cccc(-c3cccc4c3CC[C@@H]4Oc3nc(OC)c(CNC4(C(=O)O)CCC4)cc3Cl)c2Cl)ccc1CNC[C@@H]1CCC(=O)N1 | ≤ 0.064 nM
14 | CCOc1nc(O[C@H]2CCc3c(-c4cccc(-c5ccc(CNC[C@@H]6CCC(=O)N6)c(OC)n5)c4Cl)cccc32)c(Cl)cc1CN1CC2(C(=O)O)CCC1CC2 | ≤ 0.064 nM
15 | COc1nc(-c2cccc(-c3cccc4c3CC[C@@H]4Oc3nc(OCc4cncc(C#N)c4)c(CN4CC[C@H](C(=O)O)C4)cc3Cl)c2Cl)ccc1CNC[C@@H]1CCC(=O)N1 | ≤ 0.064 nM
16 | COc1nc(-c2cccc(-c3cccc4c3CC[C@@H]4Oc3nc(OC)c(CN4CC(C(=O)O)C4)cc3Cl)c2Cl)ccc1CN1CC(C)(O)C1 | ≤ 0.064 nM
17 | COc1nc(-c2cccc(-c3cccc4c3CC[C@@H]4Oc3nc(OCC#N)c(CN4CC5(C(=O)O)CCC4CC5)cc3Cl)c2Cl)ccc1CNC[C@@H]1CCC(=O)N1 | ≤ 0.064 nM
18 | COc1nc(-c2cccc(-c3cccc4c3CC[C@@H]4Oc3nc(OCc4cncc(C#N)c4)c(CN4CC5(C(=O)O)CCC4CC5)cc3Cl)c2Cl)ccc1CNC[C@@H]1CCC(=O)N1 | ≤ 0.064 nM
19 | COc1nc(-c2cccc(-c3cccc4c3CC[C@@H]4Oc3nc(OC)c(CN4CC[C@H](C(=O)NS(C)(=O)=O)C4)cc3Cl)c2Cl)ccc1CNC[C@@H]1CCC(=O)N1 | ≤ 0.064 nM
20 | CCOC(=O)C1CN(Cc2cc(Cl)c(O[C@H]3CCc4c(-c5cccc(-c6ccc(CNC[C@@H]7CCC(=O)N7)c(OC)n6)c5Cl)cccc43)nc2OC)C1 | 1.99 nM
21 | COc1nc(-c2cccc(-c3cccc4c3CC[C@@H]4Oc3nc(OC)c(CN4CCC[C@@H](C(=O)NS(C)(=O)=O)C4)cc3Cl)c2Cl)ccc1CNC[C@@H]1CCC(=O)N1 | 0.068 nM
22 | COC(=O)[C@@H]1CCN(Cc2cc(Cl)c(O[C@H]3CCc4c(-c5cccc(-c6ccc(CNC[C@@H]7CCC(=O)N7)c(OC)n6)c5Cl)cccc43)nc2OC)C1 | 3.9 nM
23 | COc1nc(-c2cccc(-c3cccc4c3CC[C@@H]4Oc3nc(OC)c(CNC4(C(=O)O)CC4)cc3Cl)c2Cl)ccc1CNC[C@@H]1CCC(=O)N1 | ≤ 0.064 nM
24 | COc1nc(-c2cccc(-c3cccc4c3CC[C@@H]4Oc3nc(OC)c(CNC4(C(=O)O)CCOCC4)cc3Cl)c2Cl)ccc1CNC[C@@H]1CCC(=O)N1 | ≤ 0.064 nM
25 | COc1nc(-c2cccc(-c3cccc4c3CC[C@@H]4Oc3nc(OC)c(CN4CCC[C@@]4(C)C(=O)O)cc3Cl)c2Cl)ccc1CNC[C@@H]1CCC(=O)N1 | ≤ 0.064 nM
26 | COc1nc(-c2cccc(-c3cccc4c3CC[C@@H]4Oc3nc(OC)c(CN[C@@H]4CCC[C@@H]4C(=O)O)cc3Cl)c2Cl)ccc1CNC[C@@H]1CCC(=O)N1 | ≤ 0.064 nM
27 | COc1nc(-c2cccc(-c3cccc4c3CC[C@@H]4Oc3nc(OC(F)F)c(CN4CC5(C(=O)O)CCC4CC5)cc3Cl)c2Cl)ccc1CNC[C@@H]1CCC(=O)N1 | 0.169 nM
28 | CCOc1nc(O[C@H]2CCc3c(-c4cccc(-c5ccc(CNC[C@@H]6CCC(=O)N6)c(OC)n5)c4Cl)cccc32)c(Cl)cc1CN1CC[C@H](C(=O)O)C1 | ≤ 0.064 nM
